What was measured:
AMPK 111 = molecular target: T1, AMPK 111 (Homo sapiens, UniProt Q13131+Q9Y478); assay: Biochemical profiling of AMPK activators by AMPK111 (HTRF/TR-FRET assay, SAMS peptide, PP2A dephosphorylation protection); conditions: for EC50: phosphorylated AMPK 111 (α1β1δ1 as printed), 11 point dilution, duplicate, 4-parameter fit; for Emax: phosphorylated AMPK 111, maximal activation
T1 construct: open reading frames encoding the full-length α1, β1 and δ1 subunits of human AMPK; made in house; host or cells: E. coli BL21-CodonPlus (DE3)-RIPL, pET-14b
Method: (§1) The biochemical EC50 (half-maximal concentration required for full activation) of compounds for the activation of AMPK was evaluated by HTRF assay using LANCE Ultra ULight-Acetyl-CoA Carboxylase (SAMS) peptide (commercially available, Perkin Elmer catalog TRF0133-M).
Following a fifteen-minute room temperature incubation, 5 μL of 30 nM protein phosphatase PP2A (isolation detailed above) diluted in the assay buffer was added to the plate, to dephosphorylate pThr172 of AMPK. […] The reaction was terminated after 60 minutes incubation at room temperature, by the addition of 5 μL of stop and detection cocktail, which consisted of 1× Perkin Elmer Lance buffer (Perkin Elmer catalog number CR97-100), 40 mM EDTA (Thermo Fisher catalog number BP2482-100), and 2 nM Eu-anti-Acetyl CoA Carboxylase [pSer70] antibody (Perkin Elmer, TRF0208-M).

AMPK 221 = molecular target: T2, AMPK 221 (Homo sapiens, UniProt O43741+P54646); assay: Biochemical profiling of AMPK activators by AMPK221 (HTRF/TR-FRET assay, SAMS peptide, PP2A dephosphorylation protection); conditions: for EC50: phosphorylated AMPK 221 (α2β2δ1), 11 point dilution, duplicate, 4-parameter fit; for Emax: phosphorylated AMPK 221, maximal activation
T2 construct: open reading frames encoding the full-length α2, β2 and δ1 subunits of human AMPK; made in house; host or cells: E. coli BL21-CodonPlus (DE3)-RIPL, pET-14b
Method: as §1
The reaction was terminated after 60 minutes incubation at room temperature by the addition of 5 μL of stop and detection cocktail, which consisted of 1× Perkin Elmer Lance buffer (Perkin Elmer catalog number CR97-100), 40 mM EDTA (Thermo Fisher catalog number BP2482-100), and 2 nM Eu-anti-Acetyl CoA Carboxylase [pSer70] antibody (Perkin Elmer, TRF0208-M). Plates were spun at 1000 RPM, 10 seconds.

T1 sequence (Q13131 whole entry): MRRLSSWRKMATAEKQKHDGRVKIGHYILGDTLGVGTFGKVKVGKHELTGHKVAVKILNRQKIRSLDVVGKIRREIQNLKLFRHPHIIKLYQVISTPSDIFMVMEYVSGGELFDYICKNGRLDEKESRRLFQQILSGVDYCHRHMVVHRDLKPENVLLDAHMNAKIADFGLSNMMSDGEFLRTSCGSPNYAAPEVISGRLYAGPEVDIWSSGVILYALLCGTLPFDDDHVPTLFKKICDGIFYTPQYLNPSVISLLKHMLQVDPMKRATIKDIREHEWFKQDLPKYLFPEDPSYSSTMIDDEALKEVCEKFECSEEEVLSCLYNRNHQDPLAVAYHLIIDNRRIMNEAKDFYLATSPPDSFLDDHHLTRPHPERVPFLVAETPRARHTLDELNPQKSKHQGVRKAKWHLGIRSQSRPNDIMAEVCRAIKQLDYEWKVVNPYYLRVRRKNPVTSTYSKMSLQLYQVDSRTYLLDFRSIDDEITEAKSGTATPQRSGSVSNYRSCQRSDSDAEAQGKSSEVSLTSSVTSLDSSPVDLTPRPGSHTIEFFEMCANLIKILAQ
T1 sequence (Q9Y478 whole entry): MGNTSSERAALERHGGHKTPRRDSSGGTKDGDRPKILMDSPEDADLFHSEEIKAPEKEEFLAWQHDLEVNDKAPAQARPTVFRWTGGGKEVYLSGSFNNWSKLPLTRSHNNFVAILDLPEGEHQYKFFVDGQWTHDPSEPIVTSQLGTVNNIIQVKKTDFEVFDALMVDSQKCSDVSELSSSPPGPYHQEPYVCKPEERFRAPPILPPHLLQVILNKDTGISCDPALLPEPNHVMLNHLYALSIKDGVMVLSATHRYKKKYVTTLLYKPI
T1 sequence (P54619 whole entry partner): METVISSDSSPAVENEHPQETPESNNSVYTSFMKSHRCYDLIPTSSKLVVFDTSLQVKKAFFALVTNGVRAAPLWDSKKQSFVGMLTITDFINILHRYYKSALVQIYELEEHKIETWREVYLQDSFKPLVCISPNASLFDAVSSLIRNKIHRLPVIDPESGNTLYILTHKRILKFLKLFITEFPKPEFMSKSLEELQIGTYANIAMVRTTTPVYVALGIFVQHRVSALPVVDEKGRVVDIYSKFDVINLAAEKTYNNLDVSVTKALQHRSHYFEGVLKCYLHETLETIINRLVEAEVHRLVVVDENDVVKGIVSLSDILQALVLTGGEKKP
T2 sequence (P54646 whole entry): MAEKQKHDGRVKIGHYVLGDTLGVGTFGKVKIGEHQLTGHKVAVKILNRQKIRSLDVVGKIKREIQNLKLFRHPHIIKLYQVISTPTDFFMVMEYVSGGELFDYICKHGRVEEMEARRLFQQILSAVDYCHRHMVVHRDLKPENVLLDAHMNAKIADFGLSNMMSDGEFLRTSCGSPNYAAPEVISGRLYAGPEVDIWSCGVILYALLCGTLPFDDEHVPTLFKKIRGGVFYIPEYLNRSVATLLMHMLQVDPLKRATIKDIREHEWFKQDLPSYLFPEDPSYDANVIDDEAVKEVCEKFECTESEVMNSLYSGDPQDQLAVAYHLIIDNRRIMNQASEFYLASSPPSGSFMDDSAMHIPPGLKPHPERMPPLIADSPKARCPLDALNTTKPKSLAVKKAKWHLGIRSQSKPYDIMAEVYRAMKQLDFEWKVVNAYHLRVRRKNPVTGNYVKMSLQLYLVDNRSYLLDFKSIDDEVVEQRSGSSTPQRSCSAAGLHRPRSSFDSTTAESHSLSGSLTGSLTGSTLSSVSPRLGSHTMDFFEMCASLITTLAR
T2 sequence (O43741 whole entry): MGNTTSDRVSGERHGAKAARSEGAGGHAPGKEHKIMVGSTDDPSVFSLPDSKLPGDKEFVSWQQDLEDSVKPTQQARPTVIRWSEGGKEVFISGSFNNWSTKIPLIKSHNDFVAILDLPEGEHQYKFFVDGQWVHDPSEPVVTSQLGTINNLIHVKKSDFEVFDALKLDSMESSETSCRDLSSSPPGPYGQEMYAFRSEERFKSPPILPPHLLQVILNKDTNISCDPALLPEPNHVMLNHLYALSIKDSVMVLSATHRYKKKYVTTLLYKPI
T2 sequence (P54619 whole entry partner): as the sequence (P54619 whole entry partner) above

| SMILES | EC50 (AMPK 111) | Emax (AMPK 111) | EC50 (AMPK 221) | Emax (AMPK 221) |
| --- | --- | --- | --- | --- |
| O=C(O)CCc1n[nH]c2cc(Cl)c(-c3ccc(-c4ccccc4O)cc3F)cc12 [Example 3, 3-(6-Chloro-5-(3-fluoro-2′-hydroxy-[1,1′-biphenyl]-4-yl)-1H-indazol-3-yl)propanoic acid] | 189 nM | 83% | 528 nM | 61% |
| O=C(O)CCc1c[nH]c2cc(Cl)c(-c3ccc(-c4ccccc4O)cc3)cc12 [Example 4, 3-(6-Chloro-5-(2′-hydroxy-[1,1′-biphenyl]-4-yl)-1H-indol-3-yl)propanoic acid] | 62 nM | 74% | 665 nM | 34% |
| NC(=O)c1ccc(-c2ccc(-c3cc4c(CCC(=O)O)n[nH]c4cc3Cl)cc2)cc1 [Example 5, 3-(5-(4′-Carbamoyl-[1,1′-biphenyl]-4-yl)-6-chloro-1H-indazol-3-yl)propanoic acid] | 89 nM | 59% | 37 nM | 62% |
| NC(=O)c1ccc(-c2ccc(-c3cc4c(CCC(=O)O)n[nH]c4cc3Cl)cc2)c(O)c1 [Example 6, 3-(5-(4′-Carbamoyl-2′-hydroxy-[1,1′-biphenyl]-4-yl)-6-chloro-1H-indazol-3-yl)propanoic acid] | 6 nM | 64% | 4 nM | 53% |
| NCc1ccc(-c2ccc(-c3cc4c(CCC(=O)O)n[nH]c4cc3Cl)cc2)c(O)c1 [Example 8, 3-(5-(4′-(Aminomethyl)-2′-hydroxy-[1,1′-biphenyl]-4-yl)-6-chloro-1H-indazol-3-yl)propanoic acid] | 26 nM | 75% | 38 nM | 56% |
| NS(=O)(=O)c1ccc(-c2ccc(-c3cc4c(CCC(=O)O)n[nH]c4cc3Cl)cc2)c(O)c1 [Example 9, 3-(6-chloro-5-(2′-hydroxy-4′-sulfamoyl-[1,1′-biphenyl]-4-yl)-1H-indazol-3-yl)propanoic acid] | 11 nM | 90% | 41 nM | 68% |
| COCc1ccc(-c2ccc(-c3cc4c(CCC(=O)O)n[nH]c4cc3Cl)cc2)c(O)c1 [Example 10, 3-(6-chloro-5-(2′-hydroxy-4′-(methoxymethyl)-[1,1′-biphenyl]-4-yl)-1H-indazol-3-yl)propanoic acid] | 29 nM | 76% | – | – |
| O=C(O)CSc1n[nH]c2cc(Cl)c(-c3ccc(-c4ccccc4O)cc3)cc12 [Example 11, 2-((6-chloro-5-(2′-hydroxy-[1,1′-biphenyl]-4-yl)-1H-indazol-3-yl)thio)acetic acid] | 53 nM | 62% | 60 nM | 44% |
| CN(C)C(=O)c1ccc(-c2ccc(-c3cc4c(CCC(=O)O)n[nH]c4cc3Cl)cc2)c(O)c1 [Example 12, 3-(6-chloro-5-(4′-(dimethylcarbamoyl)-2′-hydroxy-[1,1′-biphenyl]-4-yl)-1H-indazol-3-yl)propanoic acid] | 16 nM | 72% | 62 nM | 56% |
| NC(c1ccc(-c2ccc(-c3cc4c(CCC(=O)O)n[nH]c4cc3Cl)cc2)c(O)c1)C(F)(F)F (stereo not drawn) [Example 13, 3-(5-(4′-(1-amino-2,2,2-trifluoroethyl)-2′-hydroxy-[1,1′-biphenyl]-4-yl)-6-chloro-1H-indazol-3-yl)propanoic acid] | 21 nM | 86% | 69 nM | 67% |
| NC(=O)CSc1ccc(-c2ccc(-c3cc4c(CCC(=O)O)n[nH]c4cc3Cl)cc2)cc1 [Example 17, 3-(5-(4′-((2-amino-2-oxoethyl)thio)-[1,1′-biphenyl]-4-yl)-6-chloro-1H-indazol-3-yl)propanoic acid] | 34 nM | 80% | 83 nM | 49% |
| O=C(O)CNc1n[nH]c2cc(Cl)c(-c3ccc(-c4ccccc4O)cc3)cc12 [Example 19, (6-Chloro-5-(2′-hydroxy-[1,1′-biphenyl]-4-yl)-1H-indazol-3-yl)glycine] | 54 nM | 79% | 144 nM | 34% |
| CNC(=O)c1ccc(-c2ccc(-c3cc4c(CCC(=O)O)n[nH]c4cc3Cl)cc2)c(O)c1 [Example 23, 3-(6-chloro-5-(2′-hydroxy-4′-(methylcarbamoyl)-[1,1′-biphenyl]-4-yl)-1H-indazol-3-yl)propanoic acid] | 2 nM | 71% | 5 nM | 56% |
| CS(=N)(=O)c1ccc(-c2ccc(-c3cc4c(CCC(=O)O)n[nH]c4cc3Cl)cc2)cc1 (stereo not drawn) [Example 24, 3-(6-chloro-5-(4′-(S-methylsulfonimidoyl)-[1,1′-biphenyl]-4-yl)-1H-indazol-3-yl)propanoic acid] | 19 nM | 86% | 106 nM | 48% |
| CCOc1cccc(-c2ccc(-c3cc4c(CCC(=O)O)n[nH]c4cc3Cl)cc2)c1O [Example 25, 3-(6-chloro-5-(3′-ethoxy-2′-hydroxy-[1,1′-biphenyl]-4-yl)-1H-indazol-3-yl)propanoic acid] | 144 nM | 71% | 107 nM | 61% |

Next, values leading:

| EC50 (AMPK 111) | Emax (AMPK 111) | EC50 (AMPK 221) | Emax (AMPK 221) | SMILES |
| --- | --- | --- | --- | --- |
| 29 nM | 80% | 34 nM | 66% | COc1cccc(-c2ccc(-c3cc4c(CCC(=O)O)n[nH]c4cc3Cl)cc2)c1O [Example 2, 3-(6-Chloro-5-(2′-hydroxy-3′-methoxy-[1,1′-biphenyl]-4-yl)-1H-indazol-3-yl)propanoic acid] |
| 90 nM | 71% | 359 nM | 57% | O=C(O)CCc1n[nH]c2cc(Cl)c(-c3ccc(-c4ccncc4O)cc3)cc12 [Example 7, 3-(6-Chloro-5-(4-(3-hydroxypyridin-4-yl)phenyl)-1H-indazol-3-yl)propanoic acid] |
| 45 nM | 74% | 72 nM | 65% | COc1ccc(Cl)c(-c2ccc(-c3cc4c(CCC(=O)O)n[nH]c4cc3Cl)cc2)c1O [Example 14, 3-(6-chloro-5-(6′-chloro-2′-hydroxy-3′-methoxy-[1,1′-biphenyl]-4-yl)-1H-indazol-3-yl)propanoic acid] |
| 35 nM | 75% | 76 nM | 52% | Cc1cccc(O)c1-c1ccc(-c2cc3c(CCC(=O)O)n[nH]c3cc2Cl)cc1 [Example 15, 3-(6-chloro-5-(2′-hydroxy-6′-methyl-[1,1′-biphenyl]-4-yl)-1H-indazol-3-yl)propanoic acid] |
| 37 nM | 86% | 81 nM | 64% | COc1c(F)ccc(-c2ccc(-c3cc4c(CCC(=O)O)n[nH]c4cc3Cl)cc2)c1O [Example 16, 3-(6-chloro-5-(4′-fluoro-2′-hydroxy-3′-methoxy-[1,1′-biphenyl]-4-yl)-1H-indazol-3-yl)propanoic acid] |
| 12 nM | 84% | 96 nM | 64% | Cc1cc(C)c(-c2ccc(-c3cc4c(CCC(=O)O)n[nH]c4cc3Cl)cc2)c(O)c1 [Example 18, 3-(6-chloro-5-(2′-hydroxy-4′,6′-dimethyl-[1,1′-biphenyl]-4-yl)-1H-indazol-3-yl)propanoic acid] |
| 16 nM | 82% | 97 nM | 61% | Cc1ccc(F)c(O)c1-c1ccc(-c2cc3c(CCC(=O)O)n[nH]c3cc2Cl)cc1 [Example 20, 3-(6-chloro-5-(3′-fluoro-2′-hydroxy-6′-methyl-[1,1′-biphenyl]-4-yl)-1H-indazol-3-yl)propanoic acid] |
| 151 nM | 65% | 97 nM | 56% | COc1ccc(-c2ccc(-c3cc4c(CCC(=O)O)n[nH]c4cc3Cl)cc2)c(O)c1 [Example 21, 3-(6-chloro-5-(2′-hydroxy-4′-methoxy-[1,1′-biphenyl]-4-yl)-1H-indazol-3-yl)propanoic acid] |
| 111 nM | 74% | 100 nM | 59% | O=C(O)CCc1n[nH]c2cc(Cl)c(-c3ccc(-c4cccc(F)c4O)cc3)cc12 [Example 22, 3-(6-chloro-5-(3′-fluoro-2′-hydroxy-[1,1′-biphenyl]-4-yl)-1H-indazol-3-yl)propanoic acid] |
| 107 nM | 77% | 114 nM | 66% | COc1ccc(F)c(-c2ccc(-c3cc4c(CCC(=O)O)n[nH]c4cc3Cl)cc2)c1O [Example 26, 3-(6-chloro-5-(6′-fluoro-2′-hydroxy-3′-methoxy-[1,1′-biphenyl]-4-yl)-1H-indazol-3-yl)propanoic acid] |
| 7 nM | 87% | 125 nM | 62% | Cc1cncc(O)c1-c1ccc(-c2cc3c(CCC(=O)O)n[nH]c3cc2Cl)cc1 [Example 27, 3-(6-chloro-5-(4-(3-hydroxy-5-methylpyridin-4-yl)phenyl)-1H-indazol-3-yl)propanoic acid] |

Reference: US20240336572A1, “SUBSTITUTED INDAZOLE PROPIONIC ACID DERIVATIVE COMPOUNDS AND USES THEREOF” (Pfizer Inc., priority 2023, published 2024)
